These are literature values, as cited in patent US11478425B2, “Extended release compositions comprising pyridostigmine” (priority 2017, dated 2022).

Turning to `CN(C)C(=O)Oc1ccc[n+](C)c1` [pyridostigmine], where the note is “NDA #020414”, the bioavailability is reported as 10-20%. Also, for the setting “oral”, the elimination half-life is 3 to 5 h and the “time-to-maximum peak plasma concentration” value is 1 to 2 h.
